What was measured:
Format in all cases: cell-based, human
RPA = assay: chromatin-bound RPA immunofluorescence, RPE-1 cells; settings: HU 4 mM 24 h
Method: (§1) Cells were grown on glass coverslips and treated as desired. Cells were then permeabilized with 0.5% TritonX-100 in PBS for 7 min on ice, and fixed with 4% w/v formaldehyde solution (Sigma HT5012) for 10 min at room temperature (RT). After fixation, coverslips were blocked with 3% BSA in PBS (RT, 1 h), incubated with primary antibodies (RT, 2 h), washed with PBS three times and incubated with secondary antibodies (RT, 1 h). Primary antibodies used for immunofluorescence include anti-γH2A.X (20E3) (Cell Signalling Technology, 9718. 1:500); anti-RPA32/RPA2 (9H8) (Abcam, ab2175. 1:200); anti-RAD51 (H92) (Santa Cruz Biotechnology, sc-8349. 1:100); anti-BrdU (B44) (BD Biosciences, 347580. 1:100); Coverslips were then mounted on glass slides with mounting medium with DAPI. Images were captured by either standard (Zeiss Axio Imager) or confocal (Zeiss LSM-880) microscopy. Fluorescence signal intensities within each nucleus were analysed by CellProfiler software with custom-made pipelines. Co-localisation analyses were performed with custom-made CellProfiler pipelines. Briefly, nuclei were identified and used to create masks. […]

[1] = test system: RIF1-L interaction with BRCA1; assay: RIF1-BRCA1 / RIF1-BRCA1-BRCT co-immunoprecipitation, Flp-In T-REx 293 cells; settings: HU 4 mM, 4 h or 24 h; Fig. 5H, I
Method: For mCherry IP and GFP IP, cells were washed once with ice-cold TBS, lysed with IP lysis buffer (1X TBS, 0.5 mM EDTA, 1% CHAPS, 1 mM PMSF, 3 mM MgCl2, 1X Halt Protease & Phosphatase inhibitor), and incubated with 1 µl/ml Benzonase (Sigma-Aldrich, E1014) for 45 min at 4 °C with rotation. RFP-Trap or GFP-Trap Magnetic Agarose beads (Chromotek) were washed three times in IP buffer 1 (1X TBS, 0.5 mM EDTA) and then incubated with cell lysates for 1 h at 4 °C with rotation. Beads were next washed three times with IP washing buffer (1X TBS, 0.5 mM EDTA, 0.1% CHAPS, 1 mM PMSF, 250 mM NaCl, 1X Halt Protease & Phosphatase inhibitor), after which bead-bound proteins (IP fractions) were eluted by heating at 95 °C for 7 min. IP fractions were analysed by western blotting.
For FLAG IP, cell lysates were prepared in the same way. Dynabeads magnetic beads (Invitrogen) were incubated with […] anti-FLAG antibody (Sigma-Aldrich, F1804) in PBS supplemented with 0.02% Tween-20) for 10 min at RT with rotation. The antibody-bound beads were incubated with cell lysates for 1 h at 4 °C with rotation. Beads were then washed three times with PBS, after which bead-bound proteins (IP fractions) were eluted by heating at 95 °C for 7 min. IP fractions were analysed by western blotting.

[2] = test system: RIF1-BRCA1 proximity in HeLa cells; assay: RIF1-BRCA1 proximity ligation assay, HeLa cells
Method: Proximity ligation assays were performed using the Duolink In Situ PLA Fluorescence Protocol (Sigma-Aldrich, DUO92101) following the manufacturer’s instruction. Cells were grown on glass coverslips and treated as indicated for specific experiments. Cells were then permeabilized with 0.5% TritonX-100 in PBS for 10 min on ice, and fixed with 3% formaldehyde, 2% sucrose in PBS for 10 min at room temperature (RT). After fixation, coverslips were blocked in 3% BSA in PBS for 1 h at RT and incubated with primary antibodies (anti-RIF1, Bethel laboratories A300-568A, 1:1000 dilution; anti-BRCA1, Santa Cruz Biotechnologies, sc-6954, 1:200 dilution), for 1 h at RT in a humidity chamber. Primary antibodies were then washed off with PLA washing buffer A supplied in the Duolink In Situ PLA kit. Coverslips were next incubated sequentially with PLA Probes (1 h at 37 °C), ligation solution (30 min at 37 °C) and amplification solution (100 min at 37 °C), with washes by washing buffer A in between each step. At the end of incubation, coverslips were washed with washing buffer B supplied in the Duolink In Situ PLA kit. Coverslips were then mounted on glass slides with PLA Mounting medium with DAPI. Images were captured by fluorescence microscopy (Zeiss Axio Imager). PLA foci number in each nucleus were analysed by CellProfiler Software[74] with a custom-made pipeline.
For proximity ligation assays and immunofluorescence signal intensity measurements, when comparing between two samples, statistical significance of differences was calculated by Mann-Whitney test for non-parametric distributions using GraphPad Prism software (v.9). When comparing among three or more samples, p values were calculated by Kruskal-Wallis test for non-parametric distributions with Dunn’s multiple comparisons using GraphPad Prism software (v.9). For RIF1 foci formation analysis (Fig. 6B), p values were calculated by two-tailed Student’s t test. For nuclear BRCA1 intensity fold change analyses (Fig. 6C, D), p values were calculated by two-tailed one-sample t test using GraphPad Prism software (v.9). For RAD51 foci formation analyses (Fig. 7B, E and Supplementary Fig. 7B), p values were calculated by chi-square test. For HR Reporter assay analysis (Fig. 7G and Supplementary Fig. 7L), p values were calculated by two-tailed paired Student’s t test. For micronuclei frequency analysis (Fig. 7H), p values were calculated by one-tailed paired Student’s t test. All Student’s t tests were performed with Excel T.TEST function. Chi-square tests were performed with the online Chi-square test calculator at https://www.socscistatistics.com/tests/chisquare2/default2.aspx. Sample number n for all box-and-whisker plots and dot plots are listed in Supplementary Data 1.

[3] = test system: GFP-RIF1-L / GFP-RIF1-L-pp1bs foci; assay: GFP-RIF1 foci formation, HeLa cells; settings: HU 4 mM 24 h
Method: as §1

[4] = Fig 5G/H, HeLa RIF1 KO + RIF1-L-pp1bs, HU 4 mM 24 h
[5] = Fig 5G/H, HeLa RIF1 KO + RIF1-L, HU 4 mM 24 h
[6] = Fig 5G/H, HeLa RIF1 KO, HU 4 mM 24 h
[7] = Fig S3F, HeLa RIF1-L-APKF, HU 4mM 24hr
[8] = Fig S3F, HeLa RIF1-L, HU 4mM 24hr
[9] = Fig S3F, HeLa RIF1-S, HU 4mM 24hr
[10] = Fig S4H, HeLa +RIF1-L, HU 4mM 24hr
[11] = Fig S4I, HeLa +RIF1-L, HU 4mM 24hr
[12] = Fig S5G (repeat), HeLa RIF1 WT (RIF1-L), HU 4mM 24hr
[13] = Fig S5G (repeat), HeLa RIF1 pp1bs, HU 4mM 24hr
[14] = Fig S5I, HeLa RIF1-L-pp1bs-APKF, HU 4mM 24hr
[15] = Fig S5I, HeLa RIF1-L-pp1bs, HU 4mM 24hr

With `NC(=O)NO` [HU, hydroxyurea] the “chromatin-bound RPA” value (RPA) was “both increased upon HU treatment”, the “RIF1-L interaction with BRCA1” value [1] was “increased RIF1-L interaction with BRCA1” and the “RIF1-BRCA1 PLA foci per nucleus, mean” value [2, 4] was 45.51. For the same compound, the “RIF1-BRCA1 PLA foci per nucleus, median” value [2, 4] was 42, the “RIF1-BRCA1 PLA foci per nucleus, mean” value [2, 5] was 27.55 and the “RIF1-BRCA1 PLA foci per nucleus, median” value [2, 5] was 21. For the same compound, the “RIF1-BRCA1 PLA foci per nucleus, mean” value [2, 6] was 1.394, the “RIF1-BRCA1 PLA foci per nucleus, median” value [2, 6] was 1 and the “RIF1-BRCA1 PLA foci per nucleus, mean” value [2, 7] was 14.65. The “RIF1-BRCA1 PLA foci per nucleus, median” value [2, 7] was 12, the “RIF1-BRCA1 PLA foci per nucleus, mean” value [2, 8] was 18.04 and the “RIF1-BRCA1 PLA foci per nucleus, median” value [2, 8] was 15. The “RIF1-BRCA1 PLA foci per nucleus, mean” value [2, 9] was 13.85, the “RIF1-BRCA1 PLA foci per nucleus, median” value [2, 9] was 12 and the “RIF1-BRCA1 PLA foci per nucleus, mean” value [2, 10] was 21.43. The “RIF1-BRCA1 PLA foci per nucleus, median” value [2, 10] was 20, the “RIF1-BRCA1 PLA foci per nucleus, mean” value [2, 11] was 18.83 and the “RIF1-BRCA1 PLA foci per nucleus, median” value [2, 11] was 2, 17, 17. The “RIF1-BRCA1 PLA foci per nucleus, mean” value [2, 12] was 40.69, the “RIF1-BRCA1 PLA foci per nucleus, median” value [2, 12] was 37 and the “RIF1-BRCA1 PLA foci per nucleus, mean” value [2, 13] was 62.09. For the same compound, the “RIF1-BRCA1 PLA foci per nucleus, median” value [2, 13] was 62, the “RIF1-BRCA1 PLA foci per nucleus, mean” value [2, 14] was 46.58 and the “RIF1-BRCA1 PLA foci per nucleus, median” value [2, 14] was 42. The “RIF1-BRCA1 PLA foci per nucleus, mean” value [2, 15] was 53.47, the “RIF1-BRCA1 PLA foci per nucleus, median” value [2, 15] was 53 and the “HU-treated cells with distinct GFP-RIF1-L-pp1bs foci” value ([3]; HeLa GFP-RIF1-L-pp1bs) was ~ 70%. The “HU-treated cells with clear GFP-RIF1-L foci” value ([3]; HeLa GFP-RIF1-L) was ~ 10%.
